These results are taken from patent US9359196B2, “Antiproliferative compositions comprising curcumin analogs and methods of producing and using same” (The Board of Regents of the University of Oklahoma, priority 2009, dated 2016).

For data set [1], the system named is normal lung fibroblasts LL-24. Nature of the data set: In vitro anti-proliferative activity in normal lung fibroblasts LL-24. It counts as cell-based. The following applies: LL-24, identical treatment conditions (10 μM, 24 h). As to the method: Human lung adenocarcinoma cell line NCI-H441 (ATCC # HTB-174) and normal lung fibroblasts LL-24 (ATCC #CCL-151) were obtained from American Type Culture Collection (Manassas, Va.). The cells were maintained at 37° C. with 5% CO2 in RPMI 1640 medium (Invitrogen, Carlsbad, Calif.). The medium was supplemented with 10% heat-inactivated fetal bovine serum and 50 μg/ml of gentamicin (GIBCO Laboratories, Grand Island, N.Y.). For cell proliferation assay, the cells were seeded in 96-well flat-bottom tissue culture plates at a density of 0.5−1×10^4 cells per well. The cells were allowed to adhere and grow overnight, followed by treatment with CLEFMA or CLEFMA-liposomes. The concentration of CLEFMA was maintained in the range of 0.1-25 μM in 100 μl of RPMI 1640 medium. For comparison, the cells were also treated with 1 and 10 μM natural curcumin and EF24. EF24 is a potent synthetic curcuminoid and a close analog of CLEFMA [Adams et al., 2004]. All solutions of plain drugs were made in dimethylsulfoxide (DMSO). The concentration of DMSO in the treatment medium was maintained at 0.1%. The control wells received equivalent amounts of DMSO or phospholipid-matched control liposomes. Inhibition of cell proliferation was determined by measuring a decrease in hexosaminidase activity as described by Landegren [Landegren, 1984]. […]

The test system of data set [2] is H441 cells. Nature of the data set: MitoSOX Red mitochondrial superoxide imaging / flow cytometry. It counts as cell-based, human. The following applies: 0-20 μM, 12-48 h. The protocol: MitoSOX Red mitochondrial superoxide imaging: Cells were grown to 70% confluency in 24-well tissue culture plates and treated with CLEFMA (0-20 μM) for 12-48 h; treatment with hydrogen peroxide (H2O2, 10 μM) served as a positive control. At the end of the incubation period, both the non-adherent and adherent cells were incubated with 5 μM MitoSOX Red solution (Invitrogen, Carlsbad, Calif.) for 30 min at 37° C. For flow cytometric analysis, the MitoSOX-loaded cells were trypsinized and collected in HBSS (with Ca/Mg) containing 1% BSA and suspended at a density of 1−2×10^7 cells/ml. Approximately 5-10 million cells were aliquoted into a binding buffer and run through an automated dual-laser-excited FACS Calibur (Flow and Imaging Core Facility, OUHSC, Oklahoma City) measuring at 488 nm excitation wavelength. The data were collected at the FSC, FL2 and FL3 channels for at least 10,000 events, and the histogram and dot-plot charts were obtained and analyzed using Summit V4.3 software (Dako Colorado Inc, Carpinteria, Calif.). For microscopy, the MitoSOX-loaded cells were counterstained with 1 μg/ml Hoechst 33342 dye (Molecular Probes, Carlsbad, Calif.). […]
For orientation: A flow cytometer gives signals particle by particle.

For data set [3], the system named is H441 cells. Nature of the data set: Transmission electron microscopy of treated H441 cells (autophagy). The conditions noted are these: 24 hour treatment, 1 and 10 μM. It counts as cell-based, human. As to the method: Transmission Electron Microscopy (TEM): TEM was performed after 24 hour treatment with 1 and 10 μM of compound 1 or compound 29 (CLEFMA). The cells were fixed in 0.1M sodium cacodylate buffer containing 4% paraformaldehyde (PFA) and 2% glutaraldehyde for 4 h at room temperature. The samples were post-fixed in 1% osmium tetroxide for 1.5 h and washed with 0.1M sodium cacodylate buffer, followed by dehydration in an ethanol series of 50%, 60%, 75%, 85%, and 95% for 15 minutes each. The cells were washed twice in 100% Ethanol and passed through a series of epon-araldite (6.2 g epon+4.4 g araldite+12.4 g of dodecenyl succinic anhydride+0.8 g N,N-dimethylbenzylamine) solution in ethanol, [Matsko et al., 2005] before embedding the cells in epon-araldite resin. Finally, 100 nm sections were cut using a microtome, and the sections were placed on glow-discharged 300 mesh Copper grids. The ultrasections were stained with Sato's lead (mixture of calcinated lead citrate, lead nitrate, lead acetate and sodium citrate), and observed by a Hitachi H-7600 Transmission Electron Microscope at 2500× (Oklahoma Medical Research Foundation Imaging and core facility, Oklahoma City).

Data set [4] has as its system caspase-3/7 activation in H441 cells. Nature of the data set: Caspase-3 immunoblotting and Apo-One caspase-3/7 assay in H441 cells. It is filed as cell-based, human. (Immunoblotting shows a protein as a band on a membrane.)

`O=C(O)C=CC(=O)N1CC(=Cc2ccccc2Cl)C(=O)C(=Cc2ccccc2Cl)C1` [Compound 29, 4-[3,5-Bis-(2-chlorobenzylidene)-4-oxo-piperidin-1-yl]-4-oxo-2-butenoic acid]: in data set [1], the “effect on normal lung fibroblasts” value is “essentially remained unscathed”. Further, the “mitochondrial ROS production (MitoSOX)” value in the data set on H441 cells [2] is “time- and dose dependent increase in mitochondrial ROS production”. Further, the “change in cellular architecture (TEM)” value in the data set with H441 cells [3] is “induced a substantial change in cellular architecture”. The “caspase-3 activation level (immunoblotting)” value in data set [4] (H441 cell lysates) is listed as “no change in its activation level”. Besides, the “cleavage-based caspase activation (Apo-One caspase-3/7 assay)” value in data set [4] (H441 cells) is listed as “no cleavage-based caspase activation was seen”.
